PubChem BioAssay AID743059 (The Scripps Research Institute Molecular Screening Center, 2013)
Active and inactive are the calls of the source.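 How the source made its calls: active means EC50 at or below 10 µM; inactive means EC50 above 10 µM.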

Molecular target: Nuclear hormone receptor DAF-12 (Heterodera glycines)
Assay: hgDAF-12 reporter activation EC50 – cell-based, luminescence, HEK293, dose response (AID 743059);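 further: agonist potency for compounds that raise hgDAF-12 reporter luminescence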
Conditions: HEK293 hgDAF-12 reporter, luciferase luminescence

Compound | EC50
CC1CCC(NC(=O)c2cccn2C)CC1 (stereo unspecified) | > 67.6 µM (inactive)
N#Cc1c(N)nc(N)nc1Nc1ccc(Br)cc1 | > 67.4 µM (inactive)
Clc1ccccc1Nc1nnc(-c2ccncc2)s1 | > 67.5 µM (inactive)
CC/C(=N\NC(=O)c1ccoc1C)c1ccc(C)o1 | > 67.5 µM (inactive)
c1ccc(CCSc2nccn2-c2ccccc2)cc1 | > 67.6 µM (inactive)
CC1CCc2c(sc(NC(=O)C3=COCCO3)c2C(N)=O)C1 (stereo unspecified) | > 67.5 µM (inactive)
Nc1c2c(nc3sc4c(c13)CCCC4)CCCCC2 | > 67.6 µM (inactive)
Cc1scc(C(=O)N/N=C/c2ccsc2)c1C | > 67.6 µM (inactive)
c1ccc(CSc2ccc(-c3ccccn3)nn2)nc1 | > 67.5 µM (inactive)
Fc1ccc(-n2nnc(-c3cccnc3Cl)n2)cc1 | > 67.5 µM (inactive)
CCOc1ccc(-c2c(=O)n(O)c3ccccc3[n+]2[O-])cc1 | inactive
Cc1cc(C(=O)NC2CCCCC2)c(C)n1-c1ccc(F)cc1 | > 67.5 µM (inactive)
Cc1cc(NC(=O)CSc2nc3c(cc2C#N)CCC3)no1 | > 67.6 µM (inactive)
Oc1[nH]c2ccccc2c1N=Nc1ccccc1F | > 67.6 µM (inactive)
Cc1ccsc1/C=N/NC(=O)c1sccc1C | > 67.5 µM (inactive)
C/C(=C\C(=O)c1sccc1Cl)N(C)C | > 67.6 µM (inactive)
Oc1[nH]c2ccccc2c1C=Nc1ccccc1 | > 67.5 µM (inactive)
Nc1nn(-c2cccc(F)n2)cc1-c1ccccc1 | > 67.5 µM (inactive)
Cc1nc2sc(-c3ccccc3)nn2c(=O)c1Br | > 67.5 µM (inactive)
O=C(CC(=O)c1cccs1)c1ccncc1 | > 67.5 µM (inactive)
Cc1cc(-c2ccncc2)n2ncc(-c3ccccc3)c2n1 | > 67.6 µM (inactive)
Cc1cc(OCc2cc(C(=O)NCc3cc(C(C)C)no3)no2)cc(C)c1Cl | > 67.5 µM (inactive)
Cc1cccc(NC(=O)c2ccc3ccccc3n2)c1C | > 67.5 µM (inactive)

Compound | EC50
Cc1ccc(-n2ncc3ccccc3c2=O)cc1Cl | > 67.6 µM (inactive)
CCOC(=O)c1csc(-c2sccc2Br)n1 | > 67.6 µM (inactive)
c1csc(-c2nnc(-c3ccc(N4CCOCC4)cc3)o2)c1 | > 67.5 µM (inactive)
Cc1ccc(CN2CCN(CC(C)C)C(CCO)C2)s1 (stereo unspecified) | > 67.6 µM (inactive)
Cc1cc(C(=O)NC2=NCCS2)cs1 | > 67.5 µM (inactive)
ON=C(CCc1ccccc1)c1ccccc1 | > 67.5 µM (inactive)
Clc1ccc(Nc2ccc3ccccc3n2)cc1 | > 67.5 µM (inactive)
C/C(=N/NC(=O)c1cc(C(C)C)[nH]n1)c1cccs1 | > 67.6 µM (inactive)
C#CCNC(=O)C[C@H]1C[C@@]2(C(=O)OC)C(=C[C@H](C(C)C)O[C@@H]2C2CC2)N(CCCCCCCC)C1=O | > 67.5 µM (inactive)
Oc1ccc(N=Nc2ccc3ccccc3c2)cc1 | > 67.5 µM (inactive)
CCCn1c(=NC(=O)c2ccco2)c(C(=O)OCC)cc2c(=O)n3ccccc3nc21 | > 67.5 µM (inactive)
COc1ccc(Nc2nccc(-c3cccc(N)c3)n2)cc1 | > 67.5 µM (inactive)
Cc1c(C(=O)Nc2nccs2)oc2ccccc12 | > 67.6 µM (inactive)
COc1ccc2oc3cc(NCCN(C)C)ccc3c(=O)c2c1 | inactive
Cc1cc(N=Nc2ccc3ccccc3c2)ccc1O | > 67.6 µM (inactive)
Cc1nn(C(=O)c2cccs2)c(N)c1-c1ccccc1 | > 67.5 µM (inactive)
Cc1ccc(-c2nnc(NC3CCCC3)s2)cc1 | > 67.6 µM (inactive)
CCCS(=O)(=O)NCc1cn2c(C)csc2n1 | > 67.5 µM (inactive)
Cc1cc(C(=O)CSc2cccc[n+]2[O-])c(C)n1-c1ccccc1 | > 67.5 µM (inactive)
CC(C)Oc1cc(O)c2c(=O)c(-c3ccc(O)cc3)coc2c1 | > 67.6 µM (inactive)
Cn1c(NC(=O)CCC2CCCCC2)cc(=O)n(C)c1=O | > 67.5 µM (inactive)
Cc1nc2nc(-c3cccs3)[nH]c2cc1Br | > 67.5 µM (inactive)
CC(C)C(N)c1csc(Nc2nncc3ccccc23)n1 (stereo unspecified) | > 67.1 µM (inactive)

Compound | EC50
Cc1ccc(S(=O)(=O)/N=C(/NC(=S)Nc2ccccc2)c2ccccc2)cc1 | > 67.5 µM (inactive)
Cn1c(NC(=O)CCc2ccccc2)cc(=O)n(C)c1=O | > 67.5 µM (inactive)
Cc1csc(NC(=O)c2ccc3ccccc3n2)n1 | > 67.6 µM (inactive)
c1ccc(CN=C2Nc3ccccc3CS2)nc1 | > 67.5 µM (inactive)
COc1ccccc1/C=N\N=C(\N)c1ccccn1 | > 67.6 µM (inactive)
c1ccc([C@H]2CN3C(=N2)Sc2ccccc23)cc1 | > 67.1 µM (inactive)
Cc1ccc(OCc2ccc(Br)cc2)c([N+](=O)[O-])n1 | > 67.5 µM (inactive)
O=C(NCCCn1ccnc1)c1cc(-c2ccccc2)on1 | 9.16 µM
CCOC(=O)CSc1nc(-c2ccncc2)ccc1C#N | > 67.5 µM (inactive)
CN1C(=O)/C(=C/C=C2\SCCN2C)N(C)C1=S | > 67.6 µM (inactive)
N=C1/C(=C/c2ccc(OCc3ccccc3F)cc2)C(=O)N=C2SC(CC(=O)N3CCOCC3)=NN12 | > 67.5 µM (inactive)
CCOc1ccc2nc(NC(=O)Nc3cccs3)sc2c1 | > 67.5 µM (inactive)
COC(=O)C1C(=O)c2c([nH]c(C(=O)OC3CCCCC3)c2C)CC1C (stereo unspecified) | > 67.5 µM (inactive)
c1ccc(Nc2nc(-c3ccccc3)ns2)cc1 | > 67.6 µM (inactive)
OCCN1CCN(c2cnc(-c3ccsc3)cn2)CC1 | > 67.5 µM (inactive)
Cc1c(C(=O)Nc2ccccc2)csc1-c1ccccc1 | > 67.5 µM (inactive)
Cn1c(SCc2ccccc2F)nc2cccnc21 | > 67.5 µM (inactive)
Fc1ccccc1CSc1ncnc2c1ncn2C1CCCCO1 (stereo unspecified) | > 67.6 µM (inactive)
S=C(c1ccc(-c2ccc(Cl)cc2)o1)N1CCCCC1 | > 67.5 µM (inactive)
CCCSc1nsc(NC(=O)CC)n1 | > 67.5 µM (inactive)
Cc1ccc2nc(C)/c(=N\O)c(C)nc2c1 | > 67.6 µM (inactive)
c1ccc(N=Nc2ccc(C3=NCCO3)cc2)cc1 | > 67.6 µM (inactive)
O=c1[nH]cnc2cc(-c3ccccc3)sc12 | > 67.5 µM (inactive)

Compound | EC50
Cc1ccc(-c2cn3cccnc3n2)cc1 | > 67.6 µM (inactive)
Cc1ccc(/C(N)=N/OC(=O)c2cccs2)cc1 | > 67.6 µM (inactive)
Cc1ccc(N/C=C(/C#N)c2ccsc2)cc1C | > 67.5 µM (inactive)
c1ccc(CSc2ccc(-c3cccs3)nn2)cc1 | > 67.5 µM (inactive)
O=C(NCCc1ccccc1)c1cc(-c2ccco2)on1 | 7.6 µM
Cc1nn(-c2nnc(NC3CCCCC3)nn2)c(C)c1Br | > 67.6 µM (inactive)
CCOC(=O)c1c(C)oc2c1cc(O)c1ccccc12 | > 67.5 µM (inactive)
CCOC(=O)c1cn[nH]c1NC(=S)Nc1ccccc1 | > 67.6 µM (inactive)
FC(F)(F)c1cc(Cl)c2nc(-c3ccccc3)cn2c1 | > 67.5 µM (inactive)
Cc1cccc(Nc2n[nH]c(C)c2[N+](=O)[O-])c1 | > 67.5 µM (inactive)
CCN(CC)S(=O)(=O)c1ccc(C(=O)OCC(=O)Nc2ccc(-c3nc4ccc(C)cc4s3)cc2)cc1 | > 67.5 µM (inactive)
Oc1cccc(/C=C/c2ccc3cccc(O)c3n2)c1 | > 67.6 µM (inactive)
CC(=Nc1ccc(Cl)cc1N)c1c(O)cc(C)oc1=O | > 67.6 µM (inactive)
Nc1c(OS(=O)(=O)c2ccccc2)cccc1OS(=O)(=O)c1ccccc1 | > 67.5 µM (inactive)
Cc1nc(N)sc1N=Nc1ccc(Br)cc1 | > 67.5 µM (inactive)
N#C/C(=N\Nc1ccc(Cl)cc1)C(=N)N1CCCCCC1 | > 67.5 µM (inactive)
CCc1ccc(C2CC(c3ccco3)=NN2S(C)(=O)=O)cc1 (stereo unspecified) | > 67.5 µM (inactive)
CCOC(=O)c1cnc(SCc2ccccc2)nc1N | > 67.5 µM (inactive)
COc1ccc(/C=C2\SC(=O)N(CCNC(=O)C3CC4C=CC3C4)C2=O)cc1 (stereo unspecified) | > 67.5 µM (inactive)
O=[N+]([O-])c1ccc2c(c1)Nc1nc3ccccc3nc1N2 | > 67.5 µM (inactive)
Cc1ccc(-c2csc(NC(=O)/C=C/c3ccco3)c2C(=O)O)cc1 | > 67.6 µM (inactive)
Oc1ccccc1-c1cc(-c2ccc(Cl)cc2)n[nH]1 | > 67.5 µM (inactive)
CCn1c(O)c(C=Nc2ccccc2)sc1=S | > 67.5 µM (inactive)

Compound | EC50
Cc1cccc(N=Nc2cnc(N)s2)c1 | > 67.6 µM (inactive)
CCOC(=O)c1cnc(SCCc2ccccc2)nc1N | > 67.5 µM (inactive)
O=C(NC1CCC1)c1ccc(C#CC2CC2)cn1 | > 67.5 µM (inactive)
c1ccc(Nc2nc(-c3cccnc3)cs2)nc1 | > 67.6 µM (inactive)
COC(=O)c1sc2nc3c(cc2c1N)CCCC3 | > 67.5 µM (inactive)
Cc1cc(C)nc(-n2nc(C)c(Sc3ccc(F)cc3)c2N)n1 | > 67.5 µM (inactive)
Cc1ccn(-c2cccc(-n3ccc(C)n3)n2)n1 | > 67.6 µM (inactive)
O=c1[nH]c(=O)n(C2CC(O)C(CO)O2)cc1Br (stereo unspecified) | > 67.6 µM (inactive)
Cc1ccc2c(c1)N=C(c1ccccc1)CC(C(Cl)Cl)=N2 | > 67.5 µM (inactive)
Cc1ccc(Nc2ncccc2C(N)=O)cc1 | > 67.4 µM (inactive)
O=C1/C(=C\c2cccs2)Sc2ccc3ccccc3c21 | > 67.5 µM (inactive)
Clc1ccccc1Nc1nc2ccccc2o1 | > 67.6 µM (inactive)
Cc1cc(O)ccc1Nc1cc(-c2cccc(N(C)C)c2)ncn1 | > 67.5 µM (inactive)
Cc1ccc(NC(=S)N/C(=N/S(=O)(=O)c2ccccc2)c2ccccc2)cc1 | > 67.5 µM (inactive)
c1cncc(-c2noc(-c3ccc4ccccc4c3)n2)c1 | > 67.5 µM (inactive)
O=C(Nc1ccn(Cc2ccccc2)n1)c1n[nH]c([N+](=O)[O-])c1Cl | > 67.5 µM (inactive)
COc1ccc(Oc2cnn(-c3ccccc3)c(=O)c2Br)cc1 | > 67.5 µM (inactive)
CCOC(=O)c1c(C)[nH]c(N=Nc2cccc(OC)c2)c1C | > 67.5 µM (inactive)
COc1ccc2oc(C(=O)Nc3nccs3)c(C)c2c1 | > 67.5 µM (inactive)
